Tested on: P12-Ichikawa
Assay: cell viability relative to DMSO control; higher = less cytotoxic
Conditions: 48 h
Outline: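 Viability is a per-plate percentage relative to DMSO wells, with cell-free wells as background. CellTiter-Glo One luminescence was read after 48 h at 37°C on 1536-well plates (5 μl) of NOMO1 or SEM (500 cells/well) or P12-Ichikawa (1000 cells/well) leukemia cells. The cells had been adapted for at least four passages in each medium and pin-dosed with library compounds in DMSO from 47 μM to 0.79 nM in 11 threefold steps.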

[1] = HPLM + 10% dialyzed FBS, 0.000781 µM
[2] = HPLM + 10% dialyzed FBS, 0.00234 µM
[3] = HPLM + 10% dialyzed FBS, 0.00702 µM
[4] = HPLM + 10% dialyzed FBS, 0.0211 µM
[5] = HPLM + 10% dialyzed FBS, 0.0632 µM
[6] = HPLM + 10% dialyzed FBS, 0.19 µM
[7] = HPLM + 10% dialyzed FBS, 0.569 µM
[8] = HPLM + 10% dialyzed FBS, 1.71 µM
[9] = HPLM + 10% dialyzed FBS, 5.12 µM
[10] = HPLM + 10% dialyzed FBS, 15.4 µM
[11] = HPLM + 10% dialyzed FBS, 46.1 µM
[12] = RPMI 5 mM glucose + 10% FBS, 0.000781 µM
[13] = RPMI 5 mM glucose + 10% FBS, 0.00234 µM
[14] = RPMI 5 mM glucose + 10% FBS, 0.00702 µM
[15] = RPMI 5 mM glucose + 10% FBS, 0.0211 µM
[16] = RPMI 5 mM glucose + 10% FBS, 0.0632 µM
[17] = RPMI 5 mM glucose + 10% FBS, 0.19 µM
[18] = RPMI 5 mM glucose + 10% FBS, 0.569 µM
[19] = RPMI 5 mM glucose + 10% FBS, 1.71 µM
[20] = RPMI 5 mM glucose + 10% FBS, 5.12 µM
[21] = RPMI 5 mM glucose + 10% FBS, 15.4 µM
[22] = RPMI 5 mM glucose + 10% FBS, 46.1 µM
[23] = RPMI 5 mM glucose + 10% dialyzed FBS, 0.000781 µM
[24] = RPMI 5 mM glucose + 10% dialyzed FBS, 0.00234 µM
[25] = RPMI 5 mM glucose + 10% dialyzed FBS, 0.00702 µM
[26] = RPMI 5 mM glucose + 10% dialyzed FBS, 0.0211 µM
[27] = RPMI 5 mM glucose + 10% dialyzed FBS, 0.0632 µM
[28] = RPMI 5 mM glucose + 10% dialyzed FBS, 0.19 µM
[29] = RPMI 5 mM glucose + 10% dialyzed FBS, 0.569 µM
[30] = RPMI 5 mM glucose + 10% dialyzed FBS, 1.71 µM
[31] = RPMI 5 mM glucose + 10% dialyzed FBS, 5.12 µM
[32] = RPMI 5 mM glucose + 10% dialyzed FBS, 15.4 µM
[33] = RPMI 5 mM glucose + 10% dialyzed FBS, 46.1 µM

CCOC(=O)Nc1ccc(NCc2ccc(F)cc2)cc1N gave a cell viability [1] of 112%, a cell viability [2] of 116% and a cell viability [3] of 116%. For the same compound, the cell viability [4] was 121%, the cell viability [5] was 115% and the cell viability [6] was 110%. The cell viability [7] was 107%, the cell viability [8] was 112% and the cell viability [9] was 101%. For the same compound, the cell viability [10] was 98.6%, the cell viability [11] was 78.6% and the cell viability [12] was 113%. It also gave a cell viability [13] of 122%, a cell viability [14] of 122% and a cell viability [15] of 109%. The cell viability [16] was 122%, the cell viability [17] was 114% and the cell viability [18] was 118%. It also gave a cell viability [19] of 114%, a cell viability [20] of 109% and a cell viability [21] of 107%. For the same compound, the cell viability [22] was 102%, the cell viability [23] was 118% and the cell viability [24] was 113%. The cell viability [25] was 122%, the cell viability [26] was 118% and the cell viability [27] was 110%. The cell viability [28] was 121%, the cell viability [29] was 113% and the cell viability [30] was 111%. It also gave a cell viability [31] of 98.3%, a cell viability [32] of 103% and a cell viability [33] of 87.4%.
Compound COC(=O)N1CCN(Cc2cccc(NC(=O)Nc3ccc(C)nc3)c2F)CC1 has a cell viability [1] of 94.8%, a cell viability [2] of 102% and a cell viability [3] of 103%. It also gave a cell viability [4] of 98.7%, a cell viability [5] of 102% and a cell viability [6] of 94.9%. It also gave a cell viability [7] of 97.7%, a cell viability [8] of 94.1% and a cell viability [9] of 91%. For the same compound, the cell viability [10] was 88.7%, the cell viability [11] was 84.8% and the cell viability [12] was 96.6%. It also gave a cell viability [13] of 98.7%, a cell viability [14] of 95.8% and a cell viability [15] of 104%. For the same compound, the cell viability [16] was 98.7%, the cell viability [17] was 95.2% and the cell viability [18] was 82.2%. It also gave a cell viability [19] of 81.4%, a cell viability [20] of 85.9% and a cell viability [21] of 87.6%. For the same compound, the cell viability [22] was 74.4%, the cell viability [23] was 92.8% and the cell viability [24] was 96%. It also gave a cell viability [25] of 87.1%, a cell viability [26] of 93.7% and a cell viability [27] of 89.7%. For the same compound, the cell viability [28] was 84.5%, the cell viability [29] was 84.5% and the cell viability [30] was 78.2%. It also gave a cell viability [31] of 81.2%, a cell viability [32] of 81.3% and a cell viability [33] of 69%.
OC[C@H]1O[C@@H](Oc2ccc(O)cc2)[C@H](O)[C@@H](O)[C@@H]1O showed a cell viability [1] of 85.1%, a cell viability [2] of 93.5% and a cell viability [3] of 93.1%. It also gave a cell viability [4] of 95.7%, a cell viability [5] of 98.3% and a cell viability [6] of 99.9%. The cell viability [7] was 102%, the cell viability [8] was 101% and the cell viability [9] was 94.2%. For the same compound, the cell viability [10] was 98.4%, the cell viability [11] was 97% and the cell viability [12] was 80.7%. The cell viability [13] was 79.8%, the cell viability [14] was 87% and the cell viability [15] was 94.9%. For the same compound, the cell viability [16] was 95.7%, the cell viability [17] was 86% and the cell viability [18] was 84.7%. It also gave a cell viability [19] of 83.6%, a cell viability [20] of 90.9% and a cell viability [21] of 93.1%. The cell viability [22] was 91.3%, the cell viability [23] was 80.1% and the cell viability [24] was 84.8%. For the same compound, the cell viability [25] was 91.1%, the cell viability [26] was 93.4% and the cell viability [27] was 93.6%. It also gave a cell viability [28] of 87.8%, a cell viability [29] of 88.4% and a cell viability [30] of 88.7%. The cell viability [31] was 93.1%, the cell viability [32] was 89.6% and the cell viability [33] was 88.4%.

Source: the supplement of paper PMC11451515
